Experimental data taken from ChEMBL document CHEMBL3507680, “University of Dundee, Gates Library screen for HepG2 cell viability”.

Experiment: Human HepG2 cell viability assay in 384 well format
Assay type: toxicity, cell-based
Parameters: dose 125 nL, time 70.5 hour; concentration not given beside the values
Conditions: HepG2 cells, read-out: Inhibition
In the case of CC(C)(C)NC(=O)c1ccc(COCC(F)(F)F)o1, the cytotoxicity at 70.5 h is reported as -4.89%.
Work on CCn1nnc(NCc2ccccc2OCc2ccc(Cl)cc2)n1 yielded a cytotoxicity at 70.5 h of -7.27%.
With CC(=O)Nc1ccccc1Sc1nc(Br)nn1C the cytotoxicity at 70.5 h was -4.88%.
Work on CC(=O)Nc1c(C)noc1/C=C\c1ccc(C)c(S(=O)(=O)NC2CC2)c1 yielded a cytotoxicity at 70.5 h of -6.84%.
CN1C(=N)NC(=O)/C1=C\c1ccc(-c2ccc(F)cc2)o1 showed a cytotoxicity at 70.5 h of 28.8%.
CCCOC(=O)c1ccc(-c2ccc(/C=C3\C(=O)NC(=N)N3C)o2)cc1 gave a cytotoxicity at 70.5 h of 18.1%.
For COCCNC(=O)c1ccc2c(=O)n3c(nc2c1)CCCCC3, the cytotoxicity at 70.5 h was -22.9%.
Cc1ccc(Nc2cc(N3CCN(S(C)(=O)=O)CC3)nc(C)n2)cc1 gave a cytotoxicity at 70.5 h of -17.3%.
For COCCCNC(=O)Cn1c(C)cc(=O)n2nc(-c3cccs3)nc12, the cytotoxicity at 70.5 h was -7.89%.
In the case of COc1cccc(N2CCN(C(=O)c3noc4c3CCCC4)CC2)c1, the cytotoxicity at 70.5 h is reported as -20.2%.
With O=C(NCc1ccco1)c1cccc(C(=O)NCc2ccco2)n1 the cytotoxicity at 70.5 h was -20.3%.
In the case of Cc1ccc(S(=O)(=O)n2ccn(C(=O)CC(C)C)c2=O)cc1, the cytotoxicity at 70.5 h is reported as -19.3%.
For CCC(CC)C(=O)n1ccn(S(=O)(=O)c2ccc(C)cc2)c1=O, the cytotoxicity at 70.5 h was 15.1%.
In the case of CCc1nc(-c2ccc(C(=O)N3CCC4(CC3)OCCO4)cc2)no1, the cytotoxicity at 70.5 h is reported as -21.2%.
Compound CCc1nc(-c2ccc(NC(=O)N3CCCC3)cc2)no1 has a cytotoxicity at 70.5 h of -19.3%.
CCc1nc(-c2ccc(NC(=O)N3CCOCC3)cc2)no1 showed a cytotoxicity at 70.5 h of -3.86%.
O=C(Nc1ccc(Br)cc1F)c1cc(CN2CCOCC2)on1 showed a cytotoxicity at 70.5 h of -5.21%.
Compound CCOC(=O)CNC(=O)NCc1cccn1Cc1ccccc1 has a cytotoxicity at 70.5 h of -13.4%.
CCOC(=O)CNC(=O)NCc1cccn1Cc1cccc(C)c1 gave a cytotoxicity at 70.5 h of -18.9%.
Work on COCCCNC(=O)NCc1cccn1Cc1ccccc1C yielded a cytotoxicity at 70.5 h of -20.3%.
CCCN1CCN(C(=O)CCn2cccc2)CC1 gave a cytotoxicity at 70.5 h of -5.28%.
O=C(NCCCc1ccco1)c1cnc(N2CCOCC2)nc1 gave a cytotoxicity at 70.5 h of -18.7%.
CC(=O)N1N=C(COc2ccc(Cl)cc2)OC1c1ccccc1 (centres undefined) gave a cytotoxicity at 70.5 h of 17%.
Compound COCCn1c(-c2cccc(OC)c2)cnc1NC(=O)NC1CCCC1 has a cytotoxicity at 70.5 h of 6.84%.
Compound COCCn1c(-c2cccc(OC)c2)cnc1NC(=O)NCCC(C)C has a cytotoxicity at 70.5 h of -12.5%.
CCOc1ccc(C(=O)Nc2c(C)nc3ccc(Cl)cn3c2=O)cc1 gave a cytotoxicity at 70.5 h of -3.81%.
With COc1ccc(C(=O)Nc2c(C)nc3cccc(C)n3c2=O)cc1 the cytotoxicity at 70.5 h was -17.1%.
Work on CN1CC=C(c2noc(CCC(=O)N3CCCC3)n2)CC1 yielded a cytotoxicity at 70.5 h of 7.74%.
For CN1CC=C(c2noc(CCC(=O)N3CCOCC3)n2)CC1, the cytotoxicity at 70.5 h was -5.23%.
Work on Cc1noc2ncnc(N(C)Cc3ccco3)c12 yielded a cytotoxicity at 70.5 h of -16.7%.
COc1cnc(CSc2nnc(C)s2)cc1OCC(=O)NC1CCCC1 gave a cytotoxicity at 70.5 h of 2.36%.
For Cc1ccc2oc(SCC(=O)NC(C)(C)C)nc2n1, the cytotoxicity at 70.5 h was -6.39%.
In the case of CC(c1ccncc1)N(CCN(C)C)C(=O)Nc1ccc(Cl)cc1 (centres undefined), the cytotoxicity at 70.5 h is reported as -14.7%.
Cc1n[nH]c2c1C(c1ccc(Cl)cc1)SCC(=O)N2 (centres undefined) showed a cytotoxicity at 70.5 h of 10.6%.
Compound Cc1n[nH]c2c1C(c1ccc(Br)cc1)SCC(=O)N2 (centres undefined) has a cytotoxicity at 70.5 h of -8.1%.
Cc1n[nH]c2c1C(c1ccc(O)cc1)SCC(=O)N2 (centres undefined) showed a cytotoxicity at 70.5 h of -11%.
For COc1ccc(CN2CCCC2c2cccc(F)c2)c(OC)c1OC (centres undefined), the cytotoxicity at 70.5 h was -6.93%.
For COc1cc(CN2CCCC2c2cccc(F)c2)cc(OC)c1OC (centres undefined), the cytotoxicity at 70.5 h was -11.4%.
Compound COc1ccc(NC(=O)N2CCCC2c2ccco2)c(OC)c1 (centres undefined) has a cytotoxicity at 70.5 h of 10.8%.
COc1ccc(Cl)cc1NCc1nc2[nH]c(C)c(C)c(=O)n2n1 gave a cytotoxicity at 70.5 h of -4.46%.
Work on Cc1[nH]c2nc(CNc3cccc(Cl)c3)nn2c(=O)c1C yielded a cytotoxicity at 70.5 h of -11.7%.
For O=C(NC(c1ccccc1)c1cccnc1)C1CC1 (centres undefined), the cytotoxicity at 70.5 h was -6.82%.
For O=C(NC(c1ccc(Cl)cc1)c1cccnc1)C1CC1 (centres undefined), the cytotoxicity at 70.5 h was -7.72%.
In the case of CCOc1ccccc1CNS(=O)(=O)c1ccc2c(c1)CCCC(=O)N2, the cytotoxicity at 70.5 h is reported as -9.4%.
With CCCc1nnc(SCc2cc(=O)n3c4c(sc3n2)CCCC4)[nH]1 the cytotoxicity at 70.5 h was -6.9%.
In the case of Cc1ccc(NC(=O)c2cnc(N3CCN(C)CC3)nc2C)cc1C, the cytotoxicity at 70.5 h is reported as -4.49%.
Cc1cc(C)cc(NC(=O)c2cnc(N3CCN(C)CC3)nc2C)c1 showed a cytotoxicity at 70.5 h of -0.093%.
For CCC1CN(CC(=O)NCCN2CCCCC2)c2ccccc2S1 (centres undefined), the cytotoxicity at 70.5 h was -3.08%.
In the case of O=C1COc2cc(S(=O)(=O)NCCC3=CCCCC3)c(Cl)cc2N1, the cytotoxicity at 70.5 h is reported as 14.7%.
For Cc1nc(-c2ccc(S(=O)(=O)N3CCCCC3)cc2)co1, the cytotoxicity at 70.5 h was -8.94%.
COc1cccc(CNC(=O)Cn2ccc3c(C)nn(C)c3c2=O)c1 showed a cytotoxicity at 70.5 h of -5.8%.
Work on Cc1nn(C)c2c(=O)n(CC(=O)NCCC3=CCCCC3)ccc12 yielded a cytotoxicity at 70.5 h of -1.87%.
CCOc1ccccc1CNC(=O)Cn1ccc2c(C)nn(C)c2c1=O showed a cytotoxicity at 70.5 h of -5.58%.
Compound O=C(Cn1ccc2sccc2c1=O)NCCCc1ccccc1 has a cytotoxicity at 70.5 h of -9.43%.
O=C(Cn1ccc2sccc2c1=O)NCCC1=CCCCC1 gave a cytotoxicity at 70.5 h of -8.78%.
In the case of CCOC(=O)Cn1c(=O)c(OCC)nc2cnccc21, the cytotoxicity at 70.5 h is reported as -3.59%.
In the case of CC1=C(c2ccc(C)cc2)S(=O)(=O)N=C1N1CCc2ccccc21, the cytotoxicity at 70.5 h is reported as -5.39%.
Compound CCOc1nc2cnccc2n(CC(=O)NCc2ccco2)c1=O has a cytotoxicity at 70.5 h of -10.1%.
Work on CC(=O)N1N=C(COc2ccc(C)cc2)OC1c1ccc(N(C)C)cc1 (centres undefined) yielded a cytotoxicity at 70.5 h of -6.08%.
For COc1ccc(CN2CCCCCC2c2cccs2)c(O)c1 (centres undefined), the cytotoxicity at 70.5 h was -7.17%.
For Cc1nn(C)cc1CN1CCCCCC1c1ccc(Cl)cc1 (centres undefined), the cytotoxicity at 70.5 h was 6.75%.
Work on COc1cc(CN2CCCCCC2c2cccs2)cc(OC)c1O (centres undefined) yielded a cytotoxicity at 70.5 h of -2.15%.
In the case of COc1ccc(CN2CCCCCC2c2cccs2)c(OC)c1 (centres undefined), the cytotoxicity at 70.5 h is reported as -8.21%.
In the case of COc1cccc(CN2CCCCCC2c2sccc2C)c1O (centres undefined), the cytotoxicity at 70.5 h is reported as 1.85%.
Work on CCCNC(=O)Nc1ccc2c(c1)N(S(=O)(=O)CC)CC2 yielded a cytotoxicity at 70.5 h of -6.9%.
For CCS(=O)(=O)N1CCc2ccc(NC(=O)Nc3cccc(C)c3)cc21, the cytotoxicity at 70.5 h was 17.9%.
With CCS(=O)(=O)N1CCc2ccc(NC(=O)NCc3ccccc3)cc21 the cytotoxicity at 70.5 h was -3.62%.
Work on CC1CCCN(CCNC(=O)c2ccn(-c3ccc(F)cc3)n2)C1 (centres undefined) yielded a cytotoxicity at 70.5 h of -0.389%.
For Cc1cccc(C)c1OC1CCN(Cc2ccn(C)c(=O)c2)CC1, the cytotoxicity at 70.5 h was -5.76%.
In the case of COc1ccc(CNCC2CNc3ccnn3C2)cn1 (centres undefined), the cytotoxicity at 70.5 h is reported as -3.27%.
Compound CC(C)C(NC(=O)NCCNc1cnccn1)c1cccs1 (centres undefined) has a cytotoxicity at 70.5 h of -11.6%.
In the case of Cc1nc(-c2ccccc2)sc1CNC1CCc2ncnn2C1 (centres undefined), the cytotoxicity at 70.5 h is reported as -10.6%.
In the case of Fc1ccc(-c2nc(CNC3CCc4ncnn4C3)co2)cc1 (centres undefined), the cytotoxicity at 70.5 h is reported as -4.87%.
Cc1cc(CNC(=O)NCc2cccs2)no1 showed a cytotoxicity at 70.5 h of -5.03%.
Compound CCc1csc(C2CCCN(C(=O)c3cc(C4CC4)[nH]n3)C2)n1 (centres undefined) has a cytotoxicity at 70.5 h of -7.48%.
Compound CC(C)c1nc(CN2CCCCC2Cn2cncn2)cs1 (centres undefined) has a cytotoxicity at 70.5 h of 16.2%.
CN(Cc1cscn1)C1CCCN(c2cccnn2)C1 (centres undefined) gave a cytotoxicity at 70.5 h of 18%.
For CCc1nc(CN(C)C2CCCN(c3cccnn3)C2)no1 (centres undefined), the cytotoxicity at 70.5 h was 16.7%.
CCc1nnc(CN2CCCCC2Cn2nc(C)nc2C)o1 (centres undefined) gave a cytotoxicity at 70.5 h of -5.83%.
CC(C)C(Sc1nnnn1C1CC1)C(=O)NCc1ccccc1 (centres undefined) showed a cytotoxicity at 70.5 h of -7.04%.
Cc1ccc(-c2noc(CN3CCC(N4CCNC4=O)CC3)n2)cc1 showed a cytotoxicity at 70.5 h of 20.8%.
For Cc1cc(C)n(CC2CN(CC(=O)Nc3ccncc3)CCO2)n1 (centres undefined), the cytotoxicity at 70.5 h was -2.52%.
Cc1cc(C)n(CC2CN(CC(=O)NC3CCOCC3)CCO2)n1 (centres undefined) gave a cytotoxicity at 70.5 h of 15.9%.
CC(C)OCCCN(CC(=O)N1CCNCC1)C(=O)c1cccc(Cl)c1 gave a cytotoxicity at 70.5 h of -18.5%.
